# Measurements published in US20180230122A1, “PRODUCTION METHOD FOR HETEROARYLCARBOXYLIC ACID ESTER DERIVATIVE, PRODUCTION INTERMEDIATE THEREOF, AND CRYSTAL” (EA PHARMA CO., LTD., priority 2014, published 2018).
# Structures can show the parent of a compound that is named as a salt.
# Assay: Preservation stability of the crystal at 40° C/75% RH for 6 months (water content by Karl-Fischer, content by HPLC)
# Assay type: physicochemical
# Conditions: for content (%) (converted into dehydrated form): HPLC method; for water content (%): Karl-Fischer method
# Experimental: A crystal of 3-[5-(4-carbamimidoyl-2-fluorophenoxy)carbonyl-2-thienyl]-2,2-dimethylpropanoic acid hydrochloride obtained by the method of Example 3 was preserved for 6 months under 40° C/75% RH conditions. […] Therefore, the crystalline form is useful as a crystalline form of a drug substance for pharmaceutical products.
# The water content was measured by the Karl-Fischer method, and the content was measured by the HPLC method using a column charged with octadecylsilyl silica gel for liquid chromatography.
smiles,measurement,setting,value
"CC(C)(Cc1ccc(C(=O)Oc2ccc(C(=N)N)cc2F)s1)C(=O)O [Example 3, 3-[5-(4-carbamimidoyl-2-fluorophenoxy)carbonyl-2-thienyl]-2,2-dimethylpropanoic acid hydrochloride]",content (%) (converted into dehydrated form),6 months at 40° C/75% RH,99.5%
same,water content (%),6 months at 40° C/75% RH,0.1%
same,preservation stability of the crystal,40° C./75% RH for 6 months,stable
same,content (%) (converted into dehydrated form),start,99.5%
same,water content (%),start,0.1%
